# Earlier results as cited in patent US20080032989A1, “Method of treating inflammatory diseases using tyroskine kinase inhibitors” (priority 2006, published 2008).
# Molecular target: EGFR (Homo sapiens, UniProt P00533)
# Conditions: Table 7; cited from earlier work
# Sequence of EGFR (P00533 25-1210, species assumed): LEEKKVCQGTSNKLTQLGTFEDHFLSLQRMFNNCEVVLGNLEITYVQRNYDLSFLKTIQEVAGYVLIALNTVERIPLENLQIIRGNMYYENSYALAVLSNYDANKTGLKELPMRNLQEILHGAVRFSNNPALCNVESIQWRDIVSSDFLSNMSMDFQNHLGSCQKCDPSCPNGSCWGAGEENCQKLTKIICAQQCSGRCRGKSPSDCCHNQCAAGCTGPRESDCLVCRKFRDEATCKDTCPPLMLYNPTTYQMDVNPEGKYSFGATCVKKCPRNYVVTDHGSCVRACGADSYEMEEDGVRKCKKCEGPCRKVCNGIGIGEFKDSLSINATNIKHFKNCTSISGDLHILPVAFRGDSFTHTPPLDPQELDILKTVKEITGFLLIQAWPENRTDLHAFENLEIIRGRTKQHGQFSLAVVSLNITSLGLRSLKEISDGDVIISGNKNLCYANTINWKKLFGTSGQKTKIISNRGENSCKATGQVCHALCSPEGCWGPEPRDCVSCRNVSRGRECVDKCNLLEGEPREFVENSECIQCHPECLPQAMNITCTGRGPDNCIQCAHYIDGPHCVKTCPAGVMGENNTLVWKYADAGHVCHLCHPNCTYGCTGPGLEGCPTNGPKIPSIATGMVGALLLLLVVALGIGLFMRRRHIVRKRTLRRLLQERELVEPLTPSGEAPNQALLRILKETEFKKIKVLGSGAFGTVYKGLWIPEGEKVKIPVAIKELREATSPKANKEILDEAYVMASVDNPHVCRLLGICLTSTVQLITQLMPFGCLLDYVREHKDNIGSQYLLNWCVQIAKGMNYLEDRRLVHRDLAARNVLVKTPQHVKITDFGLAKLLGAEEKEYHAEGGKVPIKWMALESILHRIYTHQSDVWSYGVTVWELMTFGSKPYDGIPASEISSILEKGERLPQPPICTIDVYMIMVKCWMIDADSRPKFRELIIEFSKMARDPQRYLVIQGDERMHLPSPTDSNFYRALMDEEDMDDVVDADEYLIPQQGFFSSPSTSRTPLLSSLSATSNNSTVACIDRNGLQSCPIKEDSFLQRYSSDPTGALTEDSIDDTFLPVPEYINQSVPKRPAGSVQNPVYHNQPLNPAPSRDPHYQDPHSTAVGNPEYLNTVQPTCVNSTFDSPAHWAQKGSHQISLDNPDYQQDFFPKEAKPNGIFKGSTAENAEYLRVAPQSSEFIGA
smiles,measurement,value
C[C@@H](Nc1ncnc2[nH]c(-c3ccc(O)cc3)cc12)c1ccccc1 [PKI-166],EGFR Inhibitory profile (with IC50s when available),potent
